Common to all, as to type: cell-based
In one series the target is CHRM3 (Homo sapiens, UniProt P20309).
The next series has as its target T1, CHRM2 (Homo sapiens, UniProt P08172).
T1 sequence (P08172 1-466): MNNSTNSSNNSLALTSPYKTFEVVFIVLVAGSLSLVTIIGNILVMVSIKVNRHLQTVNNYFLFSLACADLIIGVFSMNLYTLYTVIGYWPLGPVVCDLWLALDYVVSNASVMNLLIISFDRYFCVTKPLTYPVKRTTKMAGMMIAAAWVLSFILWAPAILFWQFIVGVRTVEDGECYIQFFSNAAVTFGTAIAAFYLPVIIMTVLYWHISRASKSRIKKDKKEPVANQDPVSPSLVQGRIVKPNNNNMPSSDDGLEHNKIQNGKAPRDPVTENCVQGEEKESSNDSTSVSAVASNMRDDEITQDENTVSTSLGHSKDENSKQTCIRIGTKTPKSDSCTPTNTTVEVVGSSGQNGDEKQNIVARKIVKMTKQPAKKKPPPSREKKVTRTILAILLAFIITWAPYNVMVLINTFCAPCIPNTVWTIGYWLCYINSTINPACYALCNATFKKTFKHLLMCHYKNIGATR
The series can be described thus: PathHunter β-arrestin assay. The note with it: control agonist.

In another series the target is T2, CHRM4 (Homo sapiens, UniProt P08173).
T2 construct: purchased Eurofins DiscoverX (PathHunter gpcrMAX)
T2 sequence (P08173 whole entry): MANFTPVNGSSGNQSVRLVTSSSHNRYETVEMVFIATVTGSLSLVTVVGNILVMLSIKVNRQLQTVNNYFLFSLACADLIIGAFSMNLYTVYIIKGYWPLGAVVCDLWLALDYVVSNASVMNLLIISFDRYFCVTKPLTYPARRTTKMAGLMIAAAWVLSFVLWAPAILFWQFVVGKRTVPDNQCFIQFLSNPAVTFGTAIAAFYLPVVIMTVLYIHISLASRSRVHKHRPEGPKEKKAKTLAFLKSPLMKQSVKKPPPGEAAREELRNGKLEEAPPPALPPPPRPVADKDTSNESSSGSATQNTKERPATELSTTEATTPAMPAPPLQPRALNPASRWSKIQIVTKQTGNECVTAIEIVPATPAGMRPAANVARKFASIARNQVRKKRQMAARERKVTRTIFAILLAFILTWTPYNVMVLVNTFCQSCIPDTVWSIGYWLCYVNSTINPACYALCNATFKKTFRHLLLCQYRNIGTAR
The series can be described thus: PathHunter β-arrestin assay. The note with it: screen, control agonist; CHO, 37C, 2HR.

In a further series the target is T3, CHRM5 (Homo sapiens, UniProt P08912).
T3 construct: purchased Eurofins DiscoverX (PathHunter gpcrMAX)
T3 sequence (P08912 whole entry): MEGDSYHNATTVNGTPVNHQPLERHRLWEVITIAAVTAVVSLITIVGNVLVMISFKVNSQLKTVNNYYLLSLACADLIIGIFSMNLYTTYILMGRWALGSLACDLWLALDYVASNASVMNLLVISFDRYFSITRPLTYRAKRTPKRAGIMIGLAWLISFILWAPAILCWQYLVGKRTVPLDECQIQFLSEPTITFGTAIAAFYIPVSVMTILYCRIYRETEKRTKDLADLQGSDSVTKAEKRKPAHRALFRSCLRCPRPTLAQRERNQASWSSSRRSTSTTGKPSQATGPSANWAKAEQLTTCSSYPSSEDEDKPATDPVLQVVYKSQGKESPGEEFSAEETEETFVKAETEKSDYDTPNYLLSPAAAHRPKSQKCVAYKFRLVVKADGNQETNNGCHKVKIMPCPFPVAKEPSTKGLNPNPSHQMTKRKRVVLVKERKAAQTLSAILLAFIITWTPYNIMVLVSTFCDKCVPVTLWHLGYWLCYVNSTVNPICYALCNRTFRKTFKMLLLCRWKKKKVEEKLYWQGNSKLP
The series can be described thus: PathHunter β-arrestin assay. The following applies: screen, control agonist; CHO, 37C, 2HR.

Series [1] concerns AtT20 cells wildtype (WT). The series can be described thus: LDH release cytotoxicity assay. The note with it: 30 μM. On the procedure:
AtT20 cells expressing either human CB1 (hCB1) or CB2 (hCB2) receptors or wildtype (WT) were grown to confluence in T75 cm^2 flasks in Dulbecco's modified eagle medium containing 10% fetal bovine serum, 100 U penicillin/streptomycin, and 80 μg/mL hygromicyin (Sigma-Aldrich/Merck; Castle Hill, NSW, Australia). Cells were plated in 96-well-microplates at 30,000 cells per well and allowed to adhere overnight in 5% CO2. The following morning, cells were treated with either vehicle (0.1% DMSO; negative control), 30 μM Δ^9-THC, or 30 μM AMB-FUBINACA. At 1 or 6 h, the amount of lactate dehydrogenase in the cell media was tested, and compared with positive control (lysed cells) as per manufacturer's instructions (Dojindo Molecular Technologies, Inc.; Rockville, MD, USA), with readings performed on a Clariostar Plus plate reader (BMG Labtech, Mornington, VIC, Australia). Experiments were performed in triplicate. In order to measure any accumulating LDH, media was not changed after initial incubation. Data is represented as means ± S.E.M. A two-way ANOVA with was performed on the data at each time point, with Tukey's multiple comparison test (α = 0.05). A p < 0.05 was considered statistically significant.
Background: LDH in the medium is a marker of cell lysis.

Another series concerns the target T4, CNR1 (CB1) (Homo sapiens, UniProt P21554).
T4 construct: host or cells: CHO
The series can be described thus: PathHunter β-arrestin assay. The note with it: screen, control agonist; CHO, 37C, 2HR.

The next series addresses T5, CNR2 (Homo sapiens, UniProt P34972).
T5 construct: purchased Eurofins DiscoverX (PathHunter gpcrMAX)
Briefly: PathHunter β-arrestin assay. The following applies: screen, control agonist; CHO, RT, 2HR.

In the next series the target is T6, CRTH2 (Homo sapiens, UniProt Q9Y5Y4).
T6 construct: purchased Eurofins DiscoverX (PathHunter gpcrMAX)
T6 sequence (Q9Y5Y4 whole entry): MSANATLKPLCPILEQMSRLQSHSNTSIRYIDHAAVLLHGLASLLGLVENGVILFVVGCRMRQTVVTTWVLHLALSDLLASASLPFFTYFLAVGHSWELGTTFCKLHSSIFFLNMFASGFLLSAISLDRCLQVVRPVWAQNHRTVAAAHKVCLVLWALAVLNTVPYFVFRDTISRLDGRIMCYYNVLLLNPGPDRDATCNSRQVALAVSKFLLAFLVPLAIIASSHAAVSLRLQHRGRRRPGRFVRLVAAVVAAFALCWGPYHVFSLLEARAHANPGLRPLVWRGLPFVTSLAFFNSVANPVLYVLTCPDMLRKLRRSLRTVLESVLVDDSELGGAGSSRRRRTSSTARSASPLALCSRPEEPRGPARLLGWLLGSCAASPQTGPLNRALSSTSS
The series can be described thus: PathHunter β-arrestin assay. The note with it: screen, control agonist; U2OS, RT, 2HR.

Another series has as its target T7, CCR2 (Homo sapiens, UniProt P41597).
T7 construct: purchased Eurofins DiscoverX (PathHunter gpcrMAX)
Briefly: PathHunter β-arrestin assay. The note with it: screen, control agonist; CHO, 37C, 2HR.

The target in the next series is T8, CCR5 (Homo sapiens, UniProt P51681).
T8 construct: purchased Eurofins DiscoverX (PathHunter gpcrMAX)
T8 sequence (P51681 whole entry): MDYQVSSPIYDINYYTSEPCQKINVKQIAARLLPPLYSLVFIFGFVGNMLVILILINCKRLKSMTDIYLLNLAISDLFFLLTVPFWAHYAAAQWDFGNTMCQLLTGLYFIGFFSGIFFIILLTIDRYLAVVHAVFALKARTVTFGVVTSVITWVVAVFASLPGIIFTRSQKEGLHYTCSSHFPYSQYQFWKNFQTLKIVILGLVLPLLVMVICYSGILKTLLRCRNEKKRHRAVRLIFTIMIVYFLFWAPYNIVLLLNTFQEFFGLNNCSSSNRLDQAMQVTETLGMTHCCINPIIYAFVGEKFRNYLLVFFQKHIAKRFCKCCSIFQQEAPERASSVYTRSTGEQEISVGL
The series can be described thus: PathHunter β-arrestin assay. The note with it: screen, control agonist; CHO, 37C, 2HR.

A further series concerns the target T9, CCR1 (Homo sapiens, UniProt P32246).
T9 construct: purchased Eurofins DiscoverX (PathHunter gpcrMAX)
T9 sequence (P32246 1-355): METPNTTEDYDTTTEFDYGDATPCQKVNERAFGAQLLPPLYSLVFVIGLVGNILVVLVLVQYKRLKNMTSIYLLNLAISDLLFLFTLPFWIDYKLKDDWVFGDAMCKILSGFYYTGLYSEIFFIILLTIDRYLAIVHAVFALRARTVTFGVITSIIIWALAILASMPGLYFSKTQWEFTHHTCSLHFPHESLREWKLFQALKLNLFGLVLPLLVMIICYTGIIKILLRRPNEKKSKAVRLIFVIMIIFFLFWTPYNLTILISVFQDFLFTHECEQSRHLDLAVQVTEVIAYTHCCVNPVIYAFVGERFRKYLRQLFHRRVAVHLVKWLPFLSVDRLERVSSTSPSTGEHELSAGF
Briefly: PathHunter β-arrestin assay. The following applies: screen, control agonist; CHO, 37C, 2HR.

From paper PMC9798004 (Frontiers in Psychiatry, 2022) come the findings set out here.

Where “and” joins values, the source holds several entries; their conditions need not be identical. Equal entries are not always repeated.

CHRM3, sequence (P20309 whole entry): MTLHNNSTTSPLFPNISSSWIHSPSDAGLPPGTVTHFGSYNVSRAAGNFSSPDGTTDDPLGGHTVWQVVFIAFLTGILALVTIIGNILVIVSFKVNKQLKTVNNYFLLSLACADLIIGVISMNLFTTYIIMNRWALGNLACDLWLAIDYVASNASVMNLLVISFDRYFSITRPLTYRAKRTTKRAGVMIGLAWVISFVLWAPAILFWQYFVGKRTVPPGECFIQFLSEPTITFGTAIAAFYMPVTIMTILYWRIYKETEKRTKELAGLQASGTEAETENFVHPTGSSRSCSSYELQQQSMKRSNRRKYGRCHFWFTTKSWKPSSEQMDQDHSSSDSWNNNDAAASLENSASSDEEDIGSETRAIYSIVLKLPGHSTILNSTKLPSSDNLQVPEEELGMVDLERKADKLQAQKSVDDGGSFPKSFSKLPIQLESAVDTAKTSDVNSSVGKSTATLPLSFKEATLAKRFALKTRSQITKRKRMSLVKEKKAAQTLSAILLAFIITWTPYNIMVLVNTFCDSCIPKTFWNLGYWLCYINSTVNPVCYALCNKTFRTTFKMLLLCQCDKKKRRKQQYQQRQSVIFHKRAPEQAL
T7 sequence (P41597 whole entry): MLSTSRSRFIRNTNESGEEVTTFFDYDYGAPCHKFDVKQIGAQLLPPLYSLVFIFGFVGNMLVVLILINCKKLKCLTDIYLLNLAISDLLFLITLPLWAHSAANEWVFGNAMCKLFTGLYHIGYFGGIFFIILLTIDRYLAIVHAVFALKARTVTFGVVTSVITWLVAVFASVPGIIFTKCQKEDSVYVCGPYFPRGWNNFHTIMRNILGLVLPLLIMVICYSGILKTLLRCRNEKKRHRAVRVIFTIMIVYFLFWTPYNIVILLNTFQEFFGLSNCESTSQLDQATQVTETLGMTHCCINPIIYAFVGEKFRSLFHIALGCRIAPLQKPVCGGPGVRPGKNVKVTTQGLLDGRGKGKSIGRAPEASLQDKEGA
T5 sequence (P34972 whole entry): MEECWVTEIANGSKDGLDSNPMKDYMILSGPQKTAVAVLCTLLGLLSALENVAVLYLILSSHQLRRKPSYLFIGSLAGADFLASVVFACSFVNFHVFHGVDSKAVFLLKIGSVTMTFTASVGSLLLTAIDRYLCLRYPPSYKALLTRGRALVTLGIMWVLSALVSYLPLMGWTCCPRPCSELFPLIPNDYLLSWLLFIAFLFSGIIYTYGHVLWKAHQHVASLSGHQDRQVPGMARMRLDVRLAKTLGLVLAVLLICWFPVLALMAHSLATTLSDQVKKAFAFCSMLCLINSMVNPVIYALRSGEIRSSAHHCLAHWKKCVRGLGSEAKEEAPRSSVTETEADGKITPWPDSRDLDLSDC
T4 sequence (P21554 whole entry): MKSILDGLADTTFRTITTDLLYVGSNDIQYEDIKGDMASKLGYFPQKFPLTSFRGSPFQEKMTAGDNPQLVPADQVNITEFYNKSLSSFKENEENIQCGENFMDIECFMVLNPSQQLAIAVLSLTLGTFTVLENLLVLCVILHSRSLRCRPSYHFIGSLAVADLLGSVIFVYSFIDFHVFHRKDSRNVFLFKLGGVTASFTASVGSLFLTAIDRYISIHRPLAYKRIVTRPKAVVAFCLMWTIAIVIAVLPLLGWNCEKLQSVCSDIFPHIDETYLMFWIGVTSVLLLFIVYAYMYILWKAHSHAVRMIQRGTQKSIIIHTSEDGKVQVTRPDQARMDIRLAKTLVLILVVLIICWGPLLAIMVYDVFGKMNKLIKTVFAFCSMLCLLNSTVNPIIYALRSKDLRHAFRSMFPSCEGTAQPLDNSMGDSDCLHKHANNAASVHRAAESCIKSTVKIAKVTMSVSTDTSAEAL

What is called EC80 is the concentration at which the effect reaches the 80% level. The low end stands for an effect from little substance, the high end for a need for much substance. On to `CC(=O)OCC[N+](C)(C)C` [Acetylcholine], for which the EC80 at CHRM3 was 3540 nM and 3539.3 nM; at CHRM2 (follow-up concentration-response assays), 24817 nM; on CHRM2 (screen, CHO, 37C, 2HR) it was 24800 nM; at CHRM4, 3910 nM; on CHRM5, 1030 nM.
Regarding `CCCCCCC(C)(C)c1ccc([C@@H]2C[C@H](O)CC[C@H]2CCCO)c(O)c1` [CP55940], the “LDH in cell media, normalized to total LDH” value in [1] (1 h) was 28.90 ± 7.81%. In addition, in series [1] (6 h), the “LDH increase compared with vehicle” value was “no effect was observed”. Also, the EC80 was determined as 20.3 nM on CNR1 (CB1) and 4.12 nM at CNR2.
On to `CCCCC[C@H](O)/C=C/[C@H]1C(=O)C[C@H](O)[C@@H]1C/C=C\CCCC(=O)O` [PGD2], for which the EC80 at CRTH2 was found to be 23.8 nM.
In the case of CCL2: control agonist, the EC80 with CCR2 is 6.98 nM.
With CCL3: control agonist, the EC80 was 10.1 nM in the series with CCR5 and 2.53 nM in the series with CCR1.
